Results: US20080242590A1, “New Method 706” (ASTRAZENECA AB, priority 2007, published 2008)

Experiments:
Assay type in all cases: biochemical
amyloid β 1-40 peptide = assay: Degradation of amyloid β 1-40 peptide by Fc-Neprilysin and Neprilysin in buffer; details: 10 μM Phosphoramidone
Protocol: The assay is measuring the remaining amyloid β 1-40 peptide (Bachem) concentration following its incubation in the presence of Neprilysin (R&D Systems) or Fc-Neprilysin with or without Neprilysin inhibitor. 100 μl of reaction mixture containing amyloid β 1-40 peptide (final concentrations, 300, 30 or 3 nM) and/or Neprilysin (2.4 μg/ml), and/or Fc-Neprilysin construct (2.4 μg/ml), and/or Phosphoramidone (10 μM) was incubated in a round bottom 96-well polypropylene plate at 37° C. for 2.5 hours. Following incubation, 10 μl of reaction mixture was transferred into Thermo-Fast© 96-well PCR plate (Abgene, UK) containing 10 μl of Standard Diluent (Gyros AB). Amyloid β 1-40 concentration was determined using Gyrolab Workstation LIF system. Biotinylated anti-amyloid β antibodies (6E10; final concentration 50 μg/ml; Signet) were used as capturing antibodies and polyclonal anti-human amyloid β antibodies (44-348; Biosource) labeled with Alexa Fluor 647 dye (Molecular probes) were used as detection antibodies. […] Amyloid β 1-40 peptide degradation by Neprilysin was calculated as a percentage of Amyloid β 1-40 peptide left after incubation in the presence of Neprilysin compared to the amyloid β 1-40 peptide concentration in the absence of Neprilysin.

[1] = test system: amyloid β peptide 1-40 (Aβ40); assay: Ex-vivo degradation of Aβ40 in guinea pig plasma; details: 10 μM phosphoramidon
Protocol: (§1) Degradation of amyloid β peptide 1-40 (Aβ40) and amyloid β peptide 1-42 (Aβ42) by neprilysin was investigated using heparinized plasma from male Dunkin Hartley guinea pigs, weighing 250-300 g (HBLidkoping ka). Blood was withdrawn from anaesthetized guinea pigs by heart puncture. The blood were collected into prechilled heparin-plasma tubes and centrifuged for 10 min at 4° C. at 3000×g within 20 minutes of sampling. Plasma samples were transferred to pre-chilled polypropylene tubes and immediately frozen on dry ice and stored at −70° C. prior to use. The experiments were performed on a pool of plasma from seven guinea pigs. His-Fc-Nep (6 μg/ml or 208 μg/ml) or 5 μg/ml recombinant human Neprilysin (R&D systems) with corresponding vehicles (50 mM Tris-HCl, 150 mM NaCl pH 7.5 or 25 mM Tris-HCl, 0.1 M NaCl pH 8.0) were incubated with a pool of plasma in presence or absence of 10 μM phosphoramidon (BIOMOL) at 37° C. for 0 and 4 h. A final concentration of 4.7 mM EDTA was added into the tubes before the amount of Aβ40 and Aβ42 was analysed using a commercial ELISA kit obtained from Biosource (Aβ1-40) or Innogenetics (Aβ1-42).

[2] = test system: amyloid β peptide 1-42 (Aβ42); assay: Ex-vivo degradation of Aβ42 in guinea pig plasma; details: 10 μM, combined with 208 μg/ml His-Fc-Nep
Protocol: as §1

[3] = test system: amyloid β peptide 1-40 (Aβ40); assay: Degradation of Aβ40 in human plasma (Example 18); details: 10 μM phosphoramidon
Protocol: Blood from eight individuals (5 females and 3 males) were collected into pre-chilled heparin-plasma tubes at the healthcare centre (AstraZeneca) at two different time points. Plasma was prepared by centrifugation for 20 min at 4° C. at 2500×g within 30 minutes of sampling. Plasma samples were transferred to pre-chilled polypropylene tubes and immediately frozen and stored at −70° C. prior to use. His-Fc-Nep (6 μg/ml) or 5 μg/ml recombinant human Neprilysin (R&D systems) with corresponding vehicles (50 mM Tris-HCl, 150 mM NaCl pH 7.5 or 25 mM Tris-HCl, 0.1 M NaCl pH 8.0) in presence or absence of 10 μM phosphoramidon was incubated with a pool of plasma at 37° C. for 0 and 4 h. A final concentration of 4.7 mM EDTA was added into the tubes before the amount of Aβ40 was analysed using a commercial ELISA kit obtained from Biosource. His-Fc-Nep (6 μg/ml) and commercial human recombinant neprilysin (5 μg/ml) degraded Aβ40 with 33% and 70%, respectively, compared to vehicle after 4 hours incubation at 37° C. The Aβ40 levels were unaffected after addition of 10 μM phosphoramidon (FIG. 4).

What does the source list for CC(C)C[C@H](NP(=O)(O)O[C@@H]1O[C@@H](C)[C@H](O)[C@@H](O)[C@H]1O)C(=O)N[C@@H](Cc1c[nH]c2ccccc12)C(=O)O [Phosphoramidone, reference compound]?
Specific Neprilysin activity in the presence of inhibitor (amyloid β 1-40 peptide): almost completely abolished; Aβ40 levels after addition of inhibitor to the enzyme incubation [1]: unaffected; Inhibition of the Aβ42 reduction by phosphoramidon [2]: not inhibited; Aβ40 levels after addition of inhibitor to the enzyme incubation [3]: unaffected
